The source of these data is PubChem BioAssay AID306 (DTP/NCI, 2004).

Structures are written as SMILES. Where “and” joins values, the source holds several entries; their conditions need not be identical. Identical values can stand only once. Toxic doses and inconclusive results are not listed. *1 amine or outer side, *2 acyl side, *3 side chain or, on linkers, in order; H or OH if unused. Where a SMILES comes first, the peptide text is derived from it. Bridges are numbered along the chain shown (N, C = ends). Roman numbers before positions name the chains, in order. [ ]: non-standard residue; d: D form. Actinocin(9to1) = Cc1c2oc3c(C)ccc(C(=O)[*:1])c3nc-2c(C(=O)[*:2])c(N)c1=O; aThr = C[C@H](O)[C@H](N)C(=O)O; NMeV = CN[C@H](C(=O)O)C(C)C; Sar = CNCC(=O)O

This test relates to BDF1 mice, L1210 Methyl-GAG-resistant leukemia, survival T/C. Description: NCI In Vivo Anticancer Drug Screen. Data for tumor model L1210 Leukemia resistant to Methyl-GAG; NSC 32946 (subcutaneous) in B6D2F1 (BDF1) mice. The settings on record: endpoint: mean survival time, higher = longer survival. The procedure: The antitumor activity of compounds was measured in mice bearing transplantable tumors. Survival or tumor size were measured and the results are expressed as the measurement made in the treated group (T) divided by the measurement made in the vehicle treated control group (C). The tumor model used in this assay is L1210 Leukemia resistant to Methyl-GAG; NSC 32946 (subcutaneous) in B6D2F1 (BDF1) mice

Where [1] appears, read: dose: 12.5 mg/kg/injection, schedule: Q01DX Z (ip), vehicle: water.
[2] abbreviates: dose: 25.0 mg/kg/injection, schedule: Q01DX Z (ip), vehicle: water.
The mark [3] stands for this setting: dose: 50.0 mg/kg/injection, schedule: Q01DX Z (ip), vehicle: water.
Setting [4] is: dose: 12.5 mg/kg/injection, schedule: Q01DX Z (ip), vehicle: saline.
[5] abbreviates: dose: 25.0 mg/kg/injection, schedule: Q01DX Z (ip), vehicle: saline.
[6] abbreviates: dose: 6.25 mg/kg/injection, schedule: Q01DX Z (ip), vehicle: carboxymethylcellulose (CMC).
Where [7] appears, read: dose: 12.5 mg/kg/injection, schedule: Q01DX Z (ip), vehicle: carboxymethylcellulose (CMC).
Where [8] appears, read: dose: 25.0 mg/kg/injection, schedule: Q01DX Z (ip), vehicle: carboxymethylcellulose (CMC).

As for `CS(=O)(=O)OCC(O)C(O)COS(C)(=O)=O` (stereo unspecified), the T/C (dose: 99.0 mg/kg/injection, schedule: Q01DX Z (ip), vehicle: saline) is 101 % of control; the T/C (dose: 188.0 mg/kg/injection, schedule: Q01DX Z (ip), vehicle: saline) was 101 % of control; the T/C (dose: 375.0 mg/kg/injection, schedule: Q01DX Z (ip), vehicle: saline) was 101 % of control; the T/C (dose: 750.0 mg/kg/injection, schedule: Q01DX Z (ip), vehicle: saline) was 117 % of control and 120 % of control; the T/C (dose: 1500.0 mg/kg/injection, schedule: Q01DX Z (ip), vehicle: saline) was 109 % of control and 120 % of control; the T/C (dose: 3000.0 mg/kg/injection, schedule: Q01DX Z (ip), vehicle: saline) is 112 % of control.

`COS(C)(=O)=O`: the T/C is 101 % of control under setting [1]; 98 % of control and 99 % of control under setting [2]; 103 % of control and 112 % of control under setting [3].

On to `O=P1(N(CCCl)CCCl)NCCCO1` (stereo unspecified), for which the T/C by setting is: (dose: 6.25 mg/kg/injection, schedule: Q01DX Z (ip), vehicle: saline) 93 % of control; under setting [4], 122 % of control and 123 % of control; under setting [5], 254 % of control and 151 % of control; (dose: 50.0 mg/kg/injection, schedule: Q01DX Z (ip), vehicle: saline) 257 % of control and 98 % of control; (dose: 100.0 mg/kg/injection, schedule: Q01DX Z (ip), vehicle: saline) 90 % of control and 98 % of control.

On to `CN(C)c1ccc(Nc2c3ccccc3nc3ccccc23)cc1`, for which the T/C was 105 % of control (dose: 1.6 mg/kg/injection, schedule: Q01DX Z (ip), vehicle: carboxymethylcellulose (CMC)); 99 % of control (dose: 3.1 mg/kg/injection, schedule: Q01DX Z (ip), vehicle: carboxymethylcellulose (CMC)); 100 % of control under setting [6]; 103 % of control under setting [7]; 115 % of control under setting [8]; 91 % of control (dose: 200.0 mg/kg/injection, schedule: Q01DX Z (ip), vehicle: carboxymethylcellulose (CMC)).

For the compound `CCN(CC)CCNc1ccc(C)c2sc3ccccc3c(=O)c12`, the T/C was 97 % of control (dose: 1.56 mg/kg/injection, schedule: Q01DX Z (ip), vehicle: methylcellulose (MC)); 102 % of control (dose: 6.25 mg/kg/injection, schedule: Q01DX Z (ip), vehicle: methylcellulose (MC)); 104 % of control (dose: 12.5 mg/kg/injection, schedule: Q01DX Z (ip), vehicle: methylcellulose (MC)); 103 % of control and 113 % of control (dose: 25.0 mg/kg/injection, schedule: Q01DX Z (ip), vehicle: methylcellulose (MC)); 119 % of control (dose: 50.0 mg/kg/injection, schedule: Q01DX Z (ip), vehicle: methylcellulose (MC)); 151 % of control (dose: 100.0 mg/kg/injection, schedule: Q01DX Z (ip), vehicle: methylcellulose (MC)).

`O=c1[nH]c(=O)n(C2CC(O)C(CO)O2)cc1Br` (stereo unspecified): the T/C (dose: 31.0 mg/kg/injection, schedule: Q01DX Z (ip), vehicle: carboxymethylcellulose (CMC)) is 95 % of control; the T/C (dose: 63.0 mg/kg/injection, schedule: Q01DX Z (ip), vehicle: carboxymethylcellulose (CMC)) was 92 % of control; the T/C (dose: 125.0 mg/kg/injection, schedule: Q01DX Z (ip), vehicle: carboxymethylcellulose (CMC)) was 113 % of control; the T/C (dose: 500.0 mg/kg/injection, schedule: Q01DX Z (ip), vehicle: carboxymethylcellulose (CMC)) is 118 % of control; the T/C (dose: 1000.0 mg/kg/injection, schedule: Q01DX Z (ip), vehicle: carboxymethylcellulose (CMC)) was 120 % of control.

For the compound `Cc1c2oc3c(C)ccc(C(=O)N[C@@H]4C(=O)N[C@H](C(C)C)C(=O)N5CCC[C@H]5C(=O)N(C)CC(=O)N(C)[C@@H](C(C)C)C(=O)O[C@H]4C)c3nc-2c(C(=O)N[C@@H]2C(=O)N[C@H](C(C)C)C(=O)N3CCC[C@H]3C(=O)N(C)CC(=O)N(C)[C@@H](C(C)C)C(=O)O[C@H]2C)c(N)c1=O` (I: [aThr][dV]P[Sar][NMeV] / II: [aThr][dV]P[Sar][NMeV]; ester I:1-I:C, II:1-II:C; linker I:N-II:N via Actinocin(9to1)), the T/C was 96 % of control (dose: 0.8 micrograms/kg/injection, schedule: Q01DX Z (ip), vehicle: saline); 93 % of control (dose: 6.4 micrograms/kg/injection, schedule: Q01DX Z (ip), vehicle: saline); 96 % of control (dose: 25.6 micrograms/kg/injection, schedule: Q01DX Z (ip), vehicle: saline); 98 % of control (dose: 51.2 micrograms/kg/injection, schedule: Q01DX Z (ip), vehicle: saline); 90 % of control (dose: 102.0 micrograms/kg/injection, schedule: Q01DX Z (ip), vehicle: saline).

For `O=C(Nc1ccc(NC2=NCCN2)cc1)c1ccc(C(=O)Nc2ccc(NC3=NCCN3)cc2)cc1`, the T/C is, setting by setting: (dose: 0.5 mg/kg/injection, schedule: Q01DX Z (ip), vehicle: saline) 101 % of control; (dose: 1.0 mg/kg/injection, schedule: Q01DX Z (ip), vehicle: saline) 100 % of control; (dose: 2.0 mg/kg/injection, schedule: Q01DX Z (ip), vehicle: saline) 100 % of control; (dose: 8.0 mg/kg/injection, schedule: Q01DX Z (ip), vehicle: saline) 196 % of control; (dose: 32.0 mg/kg/injection, schedule: Q01DX Z (ip), vehicle: saline) 113 % of control; (dose: 64.0 mg/kg/injection, schedule: Q01DX Z (ip), vehicle: saline) 95 % of control.

Consider `NC(Cc1ccc(N(CCCl)CCCl)cc1)C(=O)O` (stereo unspecified), for which the T/C (dose: 1.25 mg/kg/injection, schedule: Q01DX Z (ip), vehicle: carboxymethylcellulose (CMC)) was 104 % of control; the T/C (dose: 2.5 mg/kg/injection, schedule: Q01DX Z (ip), vehicle: carboxymethylcellulose (CMC)) was 106 % of control; the T/C (dose: 3.2 mg/kg/injection, schedule: Q01DX Z (ip), vehicle: saline) is 94 % of control; the T/C (dose: 5.0 mg/kg/injection, schedule: Q01DX Z (ip), vehicle: carboxymethylcellulose (CMC)) was 106 % of control; the T/C (dose: 6.3 mg/kg/injection, schedule: Q01DX Z (ip), vehicle: saline) was 118 % of control; the T/C (dose: 10.0 mg/kg/injection, schedule: Q01DX Z (ip), vehicle: carboxymethylcellulose (CMC)) was 120 % of control. The T/C by setting is: under setting [4], 113 % of control; (dose: 20.0 mg/kg/injection, schedule: Q01DX Z (ip), vehicle: carboxymethylcellulose (CMC)) 98 % of control; under setting [5], 94 % of control.

`C[C@]12C=CC(=O)C=C1CC[C@@H]1[C@@H]2[C@@H](O)C[C@@]2(C)[C@H]1CC[C@]2(O)C(=O)CO`: the T/C by setting is: (dose: 62.5 mg/kg/injection, schedule: Q01DX Z (sc), vehicle: steriod suspending solution) 104 % of control; (dose: 125.0 mg/kg/injection, schedule: Q01DX Z (sc), vehicle: steriod suspending solution) 104 % of control and 124 % of control; (dose: 250.0 mg/kg/injection, schedule: Q01DX Z (sc), vehicle: steriod suspending solution) 94 % of control.

With `CC(=O)[C@H]1CC[C@H]2[C@@H]3C[C@H](C)C4=CC(=O)CC[C@]4(C)[C@H]3C(=O)C[C@]12C`, the T/C is 97 % of control (dose: 25.0 mg/kg/injection, schedule: Q01DX Z (sc), vehicle: steriod suspending solution); 95 % of control and 103 % of control (dose: 50.0 mg/kg/injection, schedule: Q01DX Z (sc), vehicle: steriod suspending solution); 97 % of control and 103 % of control and 114 % of control (dose: 100.0 mg/kg/injection, schedule: Q01DX Z (sc), vehicle: steriod suspending solution); 90 % of control and 105 % of control and 111 % of control (dose: 200.0 mg/kg/injection, schedule: Q01DX Z (sc), vehicle: steriod suspending solution); 105 % of control and 112 % of control (dose: 400.0 mg/kg/injection, schedule: Q01DX Z (sc), vehicle: steriod suspending solution); 120 % of control (dose: 800.0 mg/kg/injection, schedule: Q01DX Z (sc), vehicle: steriod suspending solution).

With `CN(C)c1ccc(/C=C/c2ccnc3ccccc23)cc1`, the T/C was 102 % of control (dose: 3.1 mg/kg/injection, schedule: Q01DX Z (ip), vehicle: water); 100 % of control (dose: 3.12 mg/kg/injection, schedule: Q01DX Z (ip), vehicle: carboxymethylcellulose (CMC)); 96 % of control under setting [6]; 97 % of control (dose: 6.25 mg/kg/injection, schedule: Q01DX Z (ip), vehicle: water); 94 % of control under setting [7]; 97 % of control under setting [1]. Also, the T/C reads like this: under setting [8], 100 % of control; under setting [2], 100 % of control; (dose: 50.0 mg/kg/injection, schedule: Q01DX Z (ip), vehicle: carboxymethylcellulose (CMC)) 94 % of control; under setting [3], 91 % of control; (dose: 100.0 mg/kg/injection, schedule: Q01DX Z (ip), vehicle: carboxymethylcellulose (CMC)) 100 % of control.
